Reference: patent publication US20120232062A1, “AZAINDAZOLES TO TREAT FLAVIVIRIDAE VIRUS INFECTION” (EIGER BIOPHARMACEUTICALS, INC., priority 2009, published 2012)

Key:
[1] = Liver microsome stability, mouse; type: in vitro ADME, CD-1 mouse
Description: (§1) Metabolic stability assays are designed to measure the stability of a test compound in a variety of assay matrices from human and animal species. From a metabolism perspective, a drug would be relatively stable, have a small first-pass effect, and maintain an effective concentration in blood for a reasonable period of time. A microsomal preparation from the liver contains all CYP isozymes and other membrane-bound drug metabolizing enzymes which are responsible for the metabolism for the majority of drugs in humans. Metabolic stability in liver microsomes can determine half-life (T1/2) and intrinsic clearance (Clint). The determination of Clint may be useful to determine whether metabolism is the major elimination pathway when it is compared to total body clearance in vivo. For high metabolic stability in liver microsomes: […] Human, Sprague Dawley rat, and CD-1 mouse liver microsome samples were purchased from BD Gentest. An in vitro metabolic stability assay suitable for use in predicting first pass metabolism of the compounds useful in the methods of the invention is described in this example. […] 6 mM NADPH in 0.1 M K-phosphate buffer is prepared by dissolving 25.1 mg of NADPH tetrasodium salt in 5 mL of K-phosphate buffer. […] The plate is pre-incubated at 37° C. for 10 minutes. 15 μL of NADPH stock solution (6 mM) is added to the wells designated for Time 60 and timed. At 30 min, 15 min, and 5 min, 15 μL of NADPH stock solution (6 mM) is added to the wells. At the end of incubation, 135 μL of ACN containing IS is added to all the wells (60 min, 30 min, 15 min, 5 min and 0 min). Then 15 μL of NADPH stock solution (6 mM) is added to the wells designated as Time 0.

[2] = Caco-2 permeability testing; type: in vitro ADME, human; conditions: human; for Papp A→B at 90 min, 10 µM: Caco-2, pH 7.4, Caco-2, A-B, read-out: Permeability (second figure of Efflux/permeability), Papp (A-B); for Papp B→A at 90 min, 10 µM: Caco-2, pH 7.4, Caco-2, B-A, read-out: Efflux (first figure of Efflux/permeability), Papp (B-A); for efflux ratio at 90 min, 10 µM: pH 7.4, Caco-2, Papp (B-A)/Papp (A-B), read-out: Efflux/Permeability ratio (desired <3)
Procedure, shortened: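 Caco-2 monolayers grown 21-27 days in MEM + 10% FBS + 1% NEAA; bidirectional transport (A-B, B-A) in HBSS with 25 mM HEPES, pH 7.4, 10 μM compound donor with 5 μM Lucifer Yellow as monolayer marker. Papp measured each direction, quantified against standard curve with internal standard; efflux ratio Papp(B-A)/Papp(A-B).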

[3] = Liver microsome stability, rat; type: in vitro ADME, Sprague Dawley rat
Description: as §1

[4] = Liver microsome stability, human; type: in vitro ADME; conditions: for liver stability predicted by in vitro PK profiles: human vs rat liver, in words
Description: as §1

Row | Compound | mouse liver microsome (MLM), % parent remaining ([1]; after 15 min) [% parent remaining] | mouse liver microsome (MLM), % parent remaining ([1]; after 30 min) [% parent remaining] | mouse liver microsome (MLM), % parent remaining ([1]; after 60 min) [% parent remaining] | Papp A→B at 90 min, 10 µM [2] [×10⁻⁶ cm/s] | Papp B→A at 90 min, 10 µM [2] [×10⁻⁶ cm/s] | rat liver microsome (RLM), % parent remaining ([3]; after 15 min) [% parent remaining] | rat liver microsome (RLM), % parent remaining ([3]; after 30 min) [% parent remaining] | rat liver microsome (RLM), % parent remaining ([3]; after 60 min) [% parent remaining] | human liver microsome (HLM, % parent remaining) ([4]; after 15 min) [% parent remaining] | human liver microsome (HLM, % parent remaining) ([4]; after 30 min) [% parent remaining] | human liver microsome (HLM, % parent remaining) ([4]; after 60 min) [% parent remaining] | efflux ratio at 90 min, 10 µM [2] | liver stability predicted by in vitro PK profiles [4]
1 | CCN1CCC(NC(=O)c2nn(C)c3nc(N4CCCCCC4)ccc23)CC1 [compound 1595] | 67 | 50 | 17 | 15.3 | 14.4 | 67 | 46 | 8 | 73 | 45 | 14 |  | 
2 | CCN1CCC(NC(=O)c2nn(C)c3nc(N4CCCCCC4)ccc23)CC1 [EBP1595] | 67 | 50 | 17 |  |  | 67 | 46 | 8 | 73 | 46 | 14 | 0.9 | higher stability in human liver vs rat liver
3 | CC(C)N1CCC(NC(=O)c2nn(C)c3nc(N4CCCCCC4)ccc23)CC1 [EBP1604] | 57 | 40 | 14 | 12 | 9 | 58 | 41 | 14 | 71 | 63 | 28 | 0.8 | higher stability in human liver vs rat liver
4 | Cn1nc(CCCN2CCCCC2CO)c2ccc(N3CCCCCCC3)nc21 (stereo not drawn) [compound 1456] | 1.7 | 0.9 | 0.3 | 15 | 15 | 3.9 | 0.4 | 0.2 | 28 | 6 | 0.7 |  | 
5 | Cn1nc(C(=O)NC2CCN(CC(F)F)CC2)c2ccc(N3CCCCCC3)nc21 [compound 1110] | 15 | 1 | 0.4 | 13.8 | 10.1 | 10 | 0.5 | 0.5 | 8 | 0.4 | 0.4 |  | 
